The text below walks through data of article PMC10629583, “Specific inhibition of an anticancer target, polo-like kinase 1, by allosterically dismantling its mechanism of substrate recognition” (Proceedings of the National Academy of Sciences of the …, 2023).

“Also recorded” adds a separate entry of the source. [ ]: non-standard residue; d: D form. The star is where a group is joined. FITC = O=C1OC2(c3ccc(O)cc3Oc3cc(O)ccc32)c2ccc(NC(=S)*)cc21; pT = C[C@@H](OP(=O)(O)O)[C@H](N)C(=O)O; Ahx = NCCCCCC(=O)O

One data set has as its target T1, full-length Plk1 (Homo sapiens, UniProt P53350).
T1 construct: expressed in transfected cells; host or cells: HEK293A cells infected with adenovirus; total lysate
The data set is described as follows: ELISA-based PBD1-binding inhibition assay. The note with it: total lysates from HEK293A cells expressing full-length Plk1; biotinylated PBIP1 p-T78 peptide; read-out: Anti-Plk1 (full length) ELISA (IC50) Mean ± SEM.

The nature of data set [1]: Solubility in PBS (imaging of insoluble particles, dynamic light scattering). It is filed as physicochemical. Particulars: PBS buffer (pH 7.4). Here is the method:
All samples were analyzed after adjusting the concentration to 100 μM solution in the PBS buffer (pH 7.4) containing 1% DMSO. The measurements were carried out at 25 °C using the DynaPro NanoStar system (Wyatt Technology). The intensity of the scattered light was measured as a function of time, and the resulting data were used to calculate the size and distribution of the particles in the sample. Collected data were analyzed using the DYNAMICS software to calculate the mean size and polydispersity index of the particles in the sample. At least three repeat measurements were performed to ensure that the results were accurate and reproducible.
Fig. S1. Solubility and activity of Allopole and its related compounds. (A) Images showing insoluble
particles of 200 µM of the indicated compounds dissolved in the PBS buffer. The aggregates of […]

Data set [2] is described as follows: Conversion of prodrug 6 to active species 5 by GSH (HPLC). It is filed as physicochemical. The note with it: room temperature, after 5 min. The protocol: To a solution of 6 (1.0 mg, 2.4 µmol) in 0.800 mL of MeOH-d4 was added a solution of glutathione (1.1 mg, 3.6 µmol) and sodium carbonate (0.76 mg, 7.2 µmol) in 0.200 mL of D2O. The reaction was stirred at room temperature and sampled at 5, 10, 20, and 60 min. Aliquots were flash-frozen on dry ice and always stored at −80 °C. HPLC and mass spectrometry were used to analyze the reaction mixtures.
HPLC analysis of both pure 6 (rt = 13.95 min) and 5 (rt = 11.16 min) using the method of acetonitrile 05 to 95% and 10 mM triethylammonium acetate 95 to 5% in 20 min gave standards to compare against the reaction mixture. The HPLC analysis of the reaction mixture, compared to standards, was performed using a Hewlett−Packard 1100 HPLC equipped with an Agilent Eclipse 5 µm XDB-C18 analytical column (50 mm × 4.6 mm; Agilent Technologies Inc.).

For the next data set, the system named is L363 cells. The data set can be described thus: MTS cell viability assay, L363 cells. It is filed as cell-based. The note with it: 48 h treatment.
The subject of data set [3] is 45 receptors and channels. The data set can be described thus: PDSP off-target screen (whole panel). The format is binding, human. An excerpt:
(§1) PDSP no. Compound Interactions (Ki, µM)
(§2) 60477 Allopole-A None observed.
(§3) trigger a secondary screen at that receptor.

For a further data set, the target named is BZP Rat brain site. The data set can be described thus: PDSP off-target binding screen. The note with it: read-out: Secondary screen Ki.
From the text: as §1, §2, §3

In the next data set the target is T2, Plk1 PBD (PBD1) (Homo sapiens, UniProt P53350).
T2 construct: constructs expressing PBD1 (residues 345–603) WT (pKM7650); His; TEV site (N); made in house; host or cells: bacteria (E. coli)
T2 sequence (P53350 345-603): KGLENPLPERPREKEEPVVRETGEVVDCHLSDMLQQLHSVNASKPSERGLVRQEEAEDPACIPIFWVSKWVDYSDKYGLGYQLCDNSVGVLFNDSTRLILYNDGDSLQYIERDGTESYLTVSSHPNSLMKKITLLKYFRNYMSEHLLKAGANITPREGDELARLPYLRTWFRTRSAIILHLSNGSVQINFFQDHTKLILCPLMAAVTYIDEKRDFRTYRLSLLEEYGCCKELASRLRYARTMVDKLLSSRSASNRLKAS
The data set can be described thus: FP-based inhibition assay, PBD1. The format is binding. The note with it: FP, bacterially expressed purified PBD, FITC-ligand 15 nM, PBD at EC85; read-out: PBD1 IC50 ± SD. The protocol: (§4) FP assays were carried out essentially as described previously ([35], [36]). […] All the samples were analyzed approximately 30 min after reaction in a 384-well format using the SpectraMax Paradigm multimode microplate detection platform (Molecular Devices). Data were analyzed after carrying out at least three independent experiments using GraphPad Prism software version 8.

Another data set has as its target T3, Plk2 PBD (PBD2) (Homo sapiens, UniProt Q9NYY3).
T3 construct: Purification of PBD2-His (355–685) (pKM3358) and its S652F mutant (pKM7980); His (C); made in house; host or cells: bacteria (E. coli)
T3 sequence (Q9NYY3 355-685): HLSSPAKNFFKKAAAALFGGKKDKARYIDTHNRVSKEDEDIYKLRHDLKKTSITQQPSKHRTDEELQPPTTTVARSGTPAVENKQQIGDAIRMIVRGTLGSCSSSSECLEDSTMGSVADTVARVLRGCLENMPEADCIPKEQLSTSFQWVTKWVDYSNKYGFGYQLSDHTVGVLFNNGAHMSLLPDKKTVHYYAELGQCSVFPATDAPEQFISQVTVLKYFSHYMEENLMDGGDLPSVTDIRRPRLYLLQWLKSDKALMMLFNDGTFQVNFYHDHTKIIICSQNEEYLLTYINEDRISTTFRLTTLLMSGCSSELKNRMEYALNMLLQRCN
The data set is described as follows: FP-based inhibition assay, PBD2. The format is binding. Particulars: bacterially expressed purified PBD, FITC-ligand 15 nM, PBD at EC85. Here is the method: as §4

Another data set deals with T4, Plk3 PBD (PBD3) (Homo sapiens, UniProt Q9H4B4).
T4 construct: MBP-PBD3-His (335–646) (pKM3359) and its A612F (pKM7981); His (C); made in house; host or cells: bacteria (E. coli)
T4 sequence (Q9H4B4 335-646): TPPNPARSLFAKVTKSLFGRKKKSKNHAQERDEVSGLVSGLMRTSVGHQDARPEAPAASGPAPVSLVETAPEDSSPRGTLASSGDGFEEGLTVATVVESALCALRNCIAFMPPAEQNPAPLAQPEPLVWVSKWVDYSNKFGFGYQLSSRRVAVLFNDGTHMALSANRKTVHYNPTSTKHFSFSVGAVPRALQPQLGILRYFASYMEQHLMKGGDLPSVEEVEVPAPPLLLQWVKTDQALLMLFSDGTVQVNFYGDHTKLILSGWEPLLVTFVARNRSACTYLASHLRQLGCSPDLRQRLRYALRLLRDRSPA
The data set can be described thus: FP-based inhibition assay, PBD3. It is filed as binding. The note with it: bacterially expressed purified PBD, FITC-ligand 15 nM, PBD at EC85. The protocol: (§5) FP assays were carried out essentially as described previously ([35], [36]). FITC-conjugated ligands (15 nM) were mixed with PBDs at their EC85 concentrations. All the samples were analyzed approximately 30 min after reaction in a 384-well format using the SpectraMax Paradigm multimode microplate detection platform (Molecular Devices). Data were analyzed after carrying out at least three independent experiments using GraphPad Prism software version 8.

The next data set has as its system Flag-Plk2 K108M. The data set is described as follows: Pulldown with biotinylated compound 22, Plk2. It is filed as binding. The note with it: streptavidin agarose, anti-Flag immunoblot. The protocol: (§6) A mixture of total cell lysates expressing Flag-Plk1 K82M (pKL577), Flag-Plk2 K108M (pKL1416), or Flag-Plk3 K52R (pKM203) (a gift from Wei Dai, New York University School of Medicine, NY) was prepared in TBSN buffer and incubated with a biotinylated Allopole-A-derivative, 22, or biotin alone. The resulting samples were then subjected to pulldown analyses with streptavidin agarose bead (Thermo Fisher Scientific), after which they were separated by SDS-PAGE and immunoblotted with anti-Flag antibody.

Another data set has as its target T5, Flag-Plk3 K52R (Homo sapiens, UniProt Q9H4B4, K91R).
T5 construct: expressed in transfected cells; host or cells: HEK293 cells; mixed total lysates
The data set can be described thus: Pulldown with biotinylated compound 22, Plk3. The format is binding. The note with it: streptavidin agarose, anti-Flag immunoblot. Here is the method: as §6

A further data set concerns Flag-Plk1 K82M. The data set can be described thus: Pulldown with biotinylated compound 22, Plk1. The format is binding. The note with it: streptavidin agarose, anti-Flag immunoblot. Here is the method: as §6
The subject of a further data set is cultured cells. Details: method as in PMID 31685831. The note with it: cited from earlier work.
The target of the next data set is T6, PBD1 F559K mutant (Homo sapiens, UniProt P53350, F559K).
T6 construct: constructs expressing PBD1 (residues 345–603) WT (pKM7650); His; TEV site (N); made in house; host or cells: bacteria (E. coli)
T6 sequence (P53350 345-603 F559K): as the sequence (P53350 345-603) above, with F215K counted along it
The data set can be described thus: FP-based binding/inhibition assay, PBD1 F559K. Particulars: FP binding, PBD1 F559K vs WT. Here is the method: as §5
(§7) Fig. S4. Generation of F559 mutants for in vitro and cell-based assays in Fig. 4. (A) SDS-PAGE showing the proteins used for the FP assays in Fig. 4 A and B. CBB, a Coomassie Brilliant Blue– stained gel. (B) Summary of Kd and EC85 values for PBD1 WT and mutants. The Kd values for PBD1 WT and mutants were determined after extrapolating them from the binding curves as the concentration at which 50% of the FITC-Ahx-DPPLHSpTAI-NH2 are PBD1-bound. The EC85 values indicate the effective concentration of 85% of the maximal concentration calculated for each protein. The FP values were obtained 30 minutes after incubation. For the F559K and F559R mutants, we were not able to determine the EC85 values and therefore used 2 µM of these proteins for the assays in Fig. 4B. N.D., not determined. […]

Another data set addresses T7, PBD1 F559R mutant (Homo sapiens, UniProt P53350, F559R).
T7 construct: constructs expressing PBD1 (residues 345–603) WT (pKM7650); His; TEV site (N); made in house; host or cells: bacteria (E. coli)
The data set can be described thus: FP-based binding/inhibition assay, PBD1 F559R. Particulars: FP binding, PBD1 F559R vs WT. The protocol: as §5, §7

The next data set concerns the target T8, PBD1 F559E mutant (Homo sapiens, UniProt P53350, F559E).
T8 construct: constructs expressing PBD1 (residues 345–603) WT (pKM7650), F559D (pKM7878), F559E (pKM7879); His; TEV site (N); made in house; host or cells: bacteria (E. coli)
The data set is described as follows: FP-based binding/inhibition assay, PBD1 F559E. The note with it: FP binding, PBD1 F559E vs WT. The protocol:
as §5, §7

The target in a further data set is T9, PBD1 F559D mutant (Homo sapiens, UniProt P53350, F559D).
T9 construct: constructs expressing PBD1 (residues 345–603) WT (pKM7650), F559D (pKM7878); His; TEV site (N); made in house; host or cells: bacteria (E. coli)
T9 sequence (P53350 345-603 F559D): as the sequence (P53350 345-603) above, with F215D counted along it
The data set can be described thus: FP-based binding/inhibition assay, PBD1 F559D. Particulars: FP binding, PBD1 F559D vs WT. Here is the method: as §5, §7

T1 sequence (P53350 whole entry): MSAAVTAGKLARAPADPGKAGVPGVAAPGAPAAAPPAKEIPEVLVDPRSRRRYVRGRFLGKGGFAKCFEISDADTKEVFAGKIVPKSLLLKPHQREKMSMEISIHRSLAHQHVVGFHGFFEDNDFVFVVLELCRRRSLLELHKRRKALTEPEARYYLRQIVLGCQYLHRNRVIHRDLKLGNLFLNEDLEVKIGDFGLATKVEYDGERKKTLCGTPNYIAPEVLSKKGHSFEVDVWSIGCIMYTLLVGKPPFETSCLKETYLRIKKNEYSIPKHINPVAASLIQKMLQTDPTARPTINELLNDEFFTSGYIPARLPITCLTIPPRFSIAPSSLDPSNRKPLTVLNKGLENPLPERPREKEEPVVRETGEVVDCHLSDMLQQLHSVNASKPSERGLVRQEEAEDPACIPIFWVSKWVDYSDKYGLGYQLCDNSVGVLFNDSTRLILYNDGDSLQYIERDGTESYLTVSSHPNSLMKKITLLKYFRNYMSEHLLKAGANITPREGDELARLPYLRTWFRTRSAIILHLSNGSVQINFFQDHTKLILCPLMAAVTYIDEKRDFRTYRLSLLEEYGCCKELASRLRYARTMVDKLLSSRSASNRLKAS
T5 sequence (Q9H4B4 40-646 K91R limits assumed): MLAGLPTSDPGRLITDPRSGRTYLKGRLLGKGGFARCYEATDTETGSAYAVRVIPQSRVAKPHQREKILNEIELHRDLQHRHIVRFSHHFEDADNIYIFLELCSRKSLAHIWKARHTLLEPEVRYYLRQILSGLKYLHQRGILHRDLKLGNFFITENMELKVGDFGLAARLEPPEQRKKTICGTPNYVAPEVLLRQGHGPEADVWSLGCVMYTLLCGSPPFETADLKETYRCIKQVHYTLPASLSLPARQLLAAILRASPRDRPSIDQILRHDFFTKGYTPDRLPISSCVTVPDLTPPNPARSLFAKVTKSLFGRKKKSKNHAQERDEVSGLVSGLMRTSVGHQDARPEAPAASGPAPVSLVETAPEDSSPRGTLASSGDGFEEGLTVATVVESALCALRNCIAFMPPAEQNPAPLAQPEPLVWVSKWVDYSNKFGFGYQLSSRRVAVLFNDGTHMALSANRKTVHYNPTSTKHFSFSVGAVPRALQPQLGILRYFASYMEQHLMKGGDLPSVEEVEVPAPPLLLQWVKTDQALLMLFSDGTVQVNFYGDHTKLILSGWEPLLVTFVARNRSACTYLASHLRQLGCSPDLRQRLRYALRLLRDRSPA
T7 sequence (P53350 345-603 F559R): as the sequence (P53350 345-603) above, with F215R counted along it
T8 sequence (P53350 345-603 F559E): as the sequence (P53350 345-603) above, with F215E counted along it

Consider `Cc1cc2c(s1)c(=O)n(CC1CC1)c1nnc(Sc3c([N+](=O)[O-])ncn3C)n21` [compound 6], for which, on full-length Plk1, the IC50 is greater than 50 µM. In addition, in data set [1], the “Solubility (in words)” value is on record as “low solubility”. Further, the “Conversion of prodrug to active species by GSH (in words)” value in data set [2] is “complete conversion”. The 50% growth inhibitory concentration (GI50) in the data set with L363 cells (read-out: Cell efficacy (GI50) Mean ± SD) was 3.13 ± 0.15 µM. Besides, the “Interactions (Ki, µM), summary of PDSP screen (in words)” value in data set [3] is reported as “None observed”.

Consider `Cc1cc2c(s1)c(=O)n(CC1CC1)c1n[nH]c(=S)n21` [compound 5], for which the Ki on BZP Rat brain site amounted to 0.41 µM. Besides, the IC50 at full-length Plk1 was found to be 1.66 ± 0.04 µM; at Plk1 PBD (PBD1), 0.0128 ± 0.0026 µM. For the same compound, the “PBD2 IC50 ± SD” value at Plk2 PBD (PBD2) was “N. S”. Moreover, the “Cell efficacy (GI50) Mean ± SD” value with L363 cells is reported as “N. S”. Also, on Plk3 PBD (PBD3), the “PBD3 IC50 ± SD” value is given as “N. S”.

On to `O=C(CCCCC1SCC2NC(=O)NC21)NCCOCCOCCOCCOCCC(=O)NCCCn1c(=O)c2cc(F)ccc2n2c(=S)[nH]nc12` (centres unmarked) [compound 22], for which the “Pulldown of Plk2 from mixed total lysates (in words)” value with Flag-Plk2 K108M is listed as “not Plk2 or Plk3”. Moreover, the IC50 at full-length Plk1 was determined as 9.32 ± 0.17 µM. Besides, the “Pulldown of Plk3 from mixed total lysates (in words)” value at Flag-Plk3 K52R is recorded as “not Plk2 or Plk3”. The “Pulldown of Plk1 from mixed total lysates (in words)” value in the data set on Flag-Plk1 K82M is “precipitated the full-length Plk1; also recorded: specifically interacts with”.

As to Polotyrin, in the data set with cultured cells, the GI50 entry is on record as “a few hundred”.

“FITC-Ahx-DPPLHSpTAI-NH2 ({FITC-Ahx}-DPPLHS[pT]AI-NH2; SMILES CC[C@H](C)[C@H](NC(=O)[C@H](C)NC(=O)[C@@H](NC(=O)[C@H](CO)NC(=O)[C@H](Cc1c[nH]cn1)NC(=O)[C@H](CC(C)C)NC(=O)[C@@H]1CCCN1C(=O)[C@@H]1CCCN1C(=O)[C@H](CC(=O)O)NC(=O)CCCCCNC(=S)Nc1ccc2c(c1)C(=O)OC21c2ccc(O)cc2Oc2cc(O)ccc21)[C@@H](C)OP(=O)(O)O)C(N)=O) [FITC-conjugated phosphopeptide, FP probe, reference compound]”: the “Decrease in affinity of the FITC-phosphopeptide compared to WT” value was “more than 27 fold” in the data set with PBD1 F559K mutant, greater than 42 fold in the data set with PBD1 F559R mutant, “approximately sevenfold decreased affinity” with PBD1 F559E mutant and 1.7 fold with PBD1 F559D mutant.
